# Experimental data reported in article PMC10298982, “Stability Characterization of the Novel Anti-Cancer HM-10/10 HDL-Mimetic Peptide” (International Journal of Molecular Sciences, 2023).
# Where “and” joins values, the source holds several entries; their conditions need not be identical. Equal values may be shown once. Read-outs that look alike come from different tables or passages of the source. Ends that are not written are not given here.
# Key:
# [1] = Test article stability over 24 h incubation with hepatocytes in the induction assay; format: in vitro ADME, human; conditions: average of three lots, both days
# Procedure: For each 24 h incubation, 50 µL of each medium containing the test article (HM-10/10) were collected at the start (T0) and end of 24 h incubation (T24) and quenched with 300 µL of 1% perchloric acid in methanol and 50 µL of internal standard cocktail (carbutamide, chrysin, and glyburide each at 1.71 µg/mL water). These samples were analyzed to test the stability of HM-10/10 after 24 h incubation with the hepatocytes. The quenched sample plates were stored covered in a −20 °C freezer.
# [2] = in vitro; conditions: Sprague-Dawley, rat, plasma, pH 7.4
# Procedure: Samples were tested at 2 μM.
# (§5) The supernatant was removed and incubated at 37 °C for at least 10 min before use. The pH of each matrix was checked and adjusted to pH 7.4 using 10% phosphoric acid or 1 N sodium hydroxide as necessary.
# (§6) Test and control article stock solutions were spiked (1.5 µL) into matrix (0.749 mL) to a final assay concentration of 2 µM and mixed. […] These tubes were sealed and incubated at 37 °C with shaking.
# (§7) The quenched samples were mixed briefly by vortexing and stored in a −20 °C freezer.
# (§8) Sample plates were stored refrigerated until analysis.
# (§9) The column was set to a temperature of 55 °C. […] The instrument was equipped with an electrospray ionization source (500 °C) operated in positive-ion mode.
# (§10) Peak area ratios for IS-normalized test article and control article counts were used to calculate the percent remaining relative to the time zero (T0) value. As appropriate, results were plotted and further analyzed to calculate half-life (T1/2) values.
# (§11) Mean peak ratios were used to calculate the percent remaining relative to the T0 value: % Remaining at Timex = (mean peak area ratio Tx/mean peak ratio T0) × 100.
# [3] = in vitro; conditions: human, plasma, pH 7.4
# Procedure: Samples were tested at 2 μM.
# as §5, §6, §7, §8, §9, §10, §11
# [4] = tested on: CYP2B6; assay: CYP2B6 induction (mRNA expression) in single-donor human hepatocytes; format: in vitro ADME
# Procedure: (§1) RNA isolation and quantification: E-Z 96 Total RNA Kit (Omega Bio-tek, Catalog No. R1034-02) was used for RNA isolation and Quant-iT RNA assay kit (ThermoFisher, Catalog No. Q33140) was used for RNA quantification. The plates were removed from a −80 °C freezer and equilibrated to room temperature. RNA was extracted using the manufacturer’s recommended protocol. Eighty-one microliters of 100% ethanol were added into each well containing 150 µL of lysed sample to make a final ethanol concentration at 35%.
# (§2) cDNA generation: For cDNA generation, a High-Capacity cDNA Reverse Transcription Kit (Applied Biosystems, Catalog No. 4319983) and QuantStudio 3 PCR system (Applied Biosystems) were used. In this step, 2X Reverse Transcription Master Mix was prepared using the contents of the kit. Then, 10 µL of total RNA was added to 10 µL of 2X Reverse Transcription Master Mix in a microplate and the plate was sealed. This plate was then run in a thermocycler to generate cDNA.
# (§3) Real time PCR: SsoAdvanced Universal SYBR® Green Supermix (BIO-RAD, Catalog No. 172-5270) and the QuantStudio 3 Real-Time PCR system (Applied Biosystems) were used to perform real-time PCR on the generated cDNA. In this step, a PCR mix was prepared using PCR Supermix, SYBR® primers for the targeted genes, and nuclease-free water. Two microliters of ten-fold diluted cDNA samples (5 µL of cDNA into 45 μL of nuclease-free water) were added to 8 µL of PCR Mix in a microplate and sealed. This plate was then run through the Real-Time PCR system to generate the mRNA expression data.
# (§4) • Human GAPDH • F: […] • R: […] • Human CYP1A2 • Unique Assay ID: qHsaCID0015160 • Chromosome Location: 15:75045562-75047256 • Human CYP2B6 • F: […] • R: […] • Human CYP3A4 • F: […] • R: […]
# [5] = target: T1, CYP2C8 (Homo sapiens, UniProt P10632); conditions: microsomes
# T1 sequence (P10632 1-490): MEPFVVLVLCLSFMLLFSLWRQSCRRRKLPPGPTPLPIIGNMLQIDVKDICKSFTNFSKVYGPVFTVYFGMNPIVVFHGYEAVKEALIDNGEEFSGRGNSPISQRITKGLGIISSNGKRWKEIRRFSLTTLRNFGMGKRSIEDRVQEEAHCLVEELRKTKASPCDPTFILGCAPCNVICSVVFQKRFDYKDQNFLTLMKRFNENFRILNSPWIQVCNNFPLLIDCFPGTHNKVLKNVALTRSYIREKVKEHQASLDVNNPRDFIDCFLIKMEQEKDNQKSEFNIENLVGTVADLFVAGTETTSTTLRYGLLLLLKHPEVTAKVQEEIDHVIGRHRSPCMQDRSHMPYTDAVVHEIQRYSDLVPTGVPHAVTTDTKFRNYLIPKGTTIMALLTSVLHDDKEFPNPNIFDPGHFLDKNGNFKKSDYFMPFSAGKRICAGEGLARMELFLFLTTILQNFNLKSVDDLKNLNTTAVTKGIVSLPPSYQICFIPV
# [6] = tested on: CYP1A2; assay: CYP1A2 induction (mRNA expression) in single-donor human hepatocytes; format: in vitro ADME
# Procedure: as §1, §2, §3, §4
# [7] = tested on: human plasma proteins; assay: Protein binding in human plasma (ultracentrifugation); format: in vitro ADME; conditions: Human plasma (K2EDTA); 2 μM; 2.5 h at 37 °C
# [8] = as above; format: in vitro ADME; conditions: pH 7.4, Human plasma (K2EDTA)
# [9] = Metabolic stability in cryopreserved human hepatocytes; format: in vitro ADME; conditions: Human hepatocytes 0.5 million cells/mL; for CLint scaled: hepatocytes
# [10] = CYP450 time-dependent inhibition, all isoenzymes together; format: in vitro ADME, human; conditions: all isoenzymes; +/− NADPH, with and without 30-min preincubation; read-out: Inhibition of CYP450 isoenzymes at 50 µM (maximum test concentration)
# [11] = tested on: CYP450 isoenzymes (1A2, 2B6, 2C8, 2C9, 2C19, 2D6 and 3A4); assay: as above; format: in vitro ADME, human
sequence,measurement,setting,value
"LRKLRKRLLRLVGRQLEEFL [HM-10/10, LRKLRKRLLRLVGRQLEEFL]",Average % Stability,[1]; 10 µM,0.7%
same,"remaining at 24 h, 2 µM","[1]; human, plated human hepatocytes, three single-donor lots, 2 µM",0.6%
same,"remaining at 24 h, 25 µM","[1]; human, plated human hepatocytes, three single-donor lots, 25 µM",0.3%
same,half-life at 2 µM,[2],1.38 h
same,"remaining at 2 h, 2 µM",[2],36.3%
same,half-life at 2 µM,[3],2.73 h
same,"remaining at 2 h, 2 µM",[3],64.5%
same,Comments (mRNA induction),[4]; 2 µM,Induction Observed
same,Fold Increase (mRNA Expression) Lot HH1086,[4]; 2 µM,2.03 fold
same,Fold Increase (mRNA Expression) Lot HH1142,[4]; 2 µM,9.76 fold
same,Fold Increase (mRNA Expression) Lot HH1144,[4]; 2 µM,2.86 fold
same,Fold Increase (mRNA Expression) Mean of 3 Lots,[4]; 2 µM,4.88 fold
same,Comments (mRNA induction),[4]; 10 µM,Induction Observed
same,Fold Increase (mRNA Expression) Lot HH1086,[4]; 10 µM,2.54 fold
same,Fold Increase (mRNA Expression) Lot HH1142,[4]; 10 µM,7.08 fold
same,Fold Increase (mRNA Expression) Lot HH1144,[4]; 10 µM,3.33 fold
same,Fold Increase (mRNA Expression) Mean of 3 Lots,[4]; 10 µM,4.32 fold
same,Comments (mRNA induction),[4]; 25 µM,Induction Observed
same,Fold Increase (mRNA Expression) Lot HH1086,[4]; 25 µM,1.26 fold
same,Fold Increase (mRNA Expression) Lot HH1142,[4]; 25 µM,5.04 fold
same,Fold Increase (mRNA Expression) Lot HH1144,[4]; 25 µM,1.92 fold
same,Fold Increase (mRNA Expression) Mean of 3 Lots,[4]; 25 µM,2.74 fold
same,% Inhibition at 50 µM No PI + NADPH,[5],18.7%
same,% Inhibition at 50 µM No PI − NADPH,[5],14.0%
same,% Inhibition at 50 µM PI + NADPH,[5],9.0%
same,% Inhibition at 50 µM PI − NADPH,[5],11.4%
same,Fold Increase (mRNA Expression) Lot HH1086,[6]; 2 µM,1.69 fold
same,Fold Increase (mRNA Expression) Lot HH1142,[6]; 2 µM,2.24 fold
same,Fold Increase (mRNA Expression) Lot HH1144,[6]; 2 µM,1.81 fold
same,Fold Increase (mRNA Expression) Mean of 3 Lots,[6]; 2 µM,1.91 fold
same,Comments (mRNA induction),[6]; 10 µM,Induction Observed
same,Fold Increase (mRNA Expression) Lot HH1086,[6]; 10 µM,2.75 fold
same,Fold Increase (mRNA Expression) Lot HH1142,[6]; 10 µM,3.24 fold
same,Fold Increase (mRNA Expression) Lot HH1144,[6]; 10 µM,1.75 fold
same,Fold Increase (mRNA Expression) Mean of 3 Lots,[6]; 10 µM,2.58 fold
same,Comments (mRNA induction),[6]; 25 µM,Induction Observed
same,Fold Increase (mRNA Expression) Lot HH1086,[6]; 25 µM,2.74 fold
same,Fold Increase (mRNA Expression) Lot HH1142,[6]; 25 µM,3.01 fold
same,Fold Increase (mRNA Expression) Lot HH1144,[6]; 25 µM,1.13 fold
same,Fold Increase (mRNA Expression) Mean of 3 Lots,[6]; 25 µM,2.29 fold
same,% Protein Bound Mean ± SD,[7],79.7% and 79.7 ± 5.5%
same,% Protein Free Mean ± SD,[7],20.3 ± 5.5%
same,"remaining at 2.5 h, 2 µM","[8]; 37 °C, read-out: % Stability in Matrix (2.5 h)",88.5%
same,"fraction unbound at 2.5 h, 2 µM","[8]; 2.5 h at 37 °C, read-out: Fu (Unbound Fraction) Mean ± SD",0.203 ± 0.055
same,% Remaining at 30 min,[9]; 2 μM,2.5%
same,half-life at 2 µM,[9]; cryopreserved hepatocytes,5.28 min
same,"remaining at 0.5 h, 2 µM","[9]; human, cryopreserved hepatocytes, read-out: % Remaining at 30 min",2.47%
same,CLint scaled,"[9]; human, 2 μM, read-out: CLint (L/hr/kg) (converted)",42.5 L/h/kg
same,CLint scaled,"[9]; human, 2 μM, read-out: CLint (mL/min/kg)",42.5 L/h/kg
same,inhibition at 50 µM,[10],-26.4 to 42.2%
same,Inhibition of CYP450 isoenzymes at 50 µM (maximum test concentration),"[11]; all isoenzymes, +/− NADPH, with and without 30-min preincubation",No inhibition to minimal inhibition
same,Inhibition of CYP isozymes at 50 µM with pre-incubation in the presence of 1 mM NADPH,"[11]; all isozymes, pooled human liver microsomes 0.1 mg/mL",less than 30%
same,Time-dependent inhibition (TDI) of CYP450 isoenzymes,"[11]; up to 50 µM, all isoenzymes",no TDI
